Assay type in all cases: in vivo, mice
The subject of series [1] is 32Dp210-luc-HSV-TK+ leukemia. As to the kind of experiment: Post-remission vaccination in the MRD model. From the text: FIG. 18A-FIG. 18B depict the efficacy of the 32Dp210 vaccine as post-remission therapy to treat MRD. (FIG. 18A) In vivo bioluminescence analyses of 32Dp210-luc-HSV-TK leukemic mice undergoing GCV treatment with or without post-remission vaccination with 32Dp210-CD80-IL-15-IL-15Rα cells. Mice were inoculated with 1×10^5 32Dp210 cells on day 0 as indicated by the schema at the top of the figure. On day 10 mice underwent in vivo bioluminescence imaging and average photon counts per animal were plotted (upper set of bar graphs). N1-N5 represents normal, non-tumor bearing mice injected with luciferin on the same day, to establish background levels. Lanes 1-15 indicate mice inoculated with leukemia and subsequently treated with GCV according to the schema at the top of the figure. Gray bars in lanes 1-5 indicate IVIS analyses of mice that would receive 14 days GCV treatment and no further intervention; Black bars in lanes 6-15 depict IVIS analyses of mice treated with 14 days of GCV treatment that would be followed by serial vaccination with irradiated 32Dp210-IL-15/IL-15Rα/CD80 cells beginning at day 17. Lower panel of bar graphs depicts semi-quantitative IVIS studies after 5 days of GCV administration (day 15) in the same animals analyzed in the upper panel of bar graphs at day 10 after tumor inoculum. […]

The next series can be described thus: Effect of GCV on CBC. The settings on record: after 2 weeks of treatment. How it is done: (§1) At day 10 after IV injection of 1×10^5 32Dp210-luc cells, all mice had detectable leukemia by IVIS, and began a 14 day treatment (50 mg/kg/day) with Ganciclovir (GCV) (APP Pharmaceuticals, LLC, Schaumberg, IL). A higher dose of 100 mg GCV/kg/day was administered to confirm that GCV had minimal or no effects on blood counts (Table 1).
(§2) The major clinical application of an autologous AML vaccine strategy would be as post-remission immunotherapy to prolong relapse free survival in patients with MRD. To recapitulate this clinical setting, we developed a murine model of MRD for testing our vaccine. Initially, several chemotherapeutic regimens, previously shown to induce transient responses in 32Dp210 leukemia, were tested^48. […] A different strategy was therefore adopted for achieving post-remission MRD in mice with high leukemia burdens by lentivirally engineering a 32Dp210 cell line to express the herpes thymidine kinase (HSV-TK) suicide gene^36. Using this approach, treatment with ganciclovir (GCV) could be used to induce remission without the confounding immune and cytopenic effects of conventional chemotherapy^49. In this context, GCV treatment should not have a direct impact on leukemia-associated immune deviation, except as associated with reduction of tumor burden, since effects of GCV are primarily restricted to suppression of marrow proliferation, but not inhibition of immune function^50.

Series [2] relates to 32Dp210-luc-HSV-TK+ leukemia. The series is described as follows: Minimal residual disease model: GCV remission induction. Here is the method:
FIG. 17A-FIG. 17C depict development of a minimal residual diseased (MRD) model in 32Dp210 leukemia. (FIG. 17A) In vivo bioluminescence analysis of effects of ganciclovir (GCV) treatment of 32Dp210-luc-HSV-TK+ leukemia. Mice inoculated IV with 32Dp210-luc-HSV-TK+ leukemia on day 0 were treated for 14 days with GCV (50 mg/kg) beginning at day 14. Left panel: Day 14 after tumor inoculation, Right panel: Day 28 after tumor inoculation and day 14 of GCV treatment. […] Mean photon counts+S.E.M. per animal are plotted on the y-axis after imaging at day 14 (white bars) and day 28 after tumor inoculation (gray bars). Uninjected controls (n=5) represent normal, non-tumor bearing mice injected with luciferin to establish background levels of in vivo bioluminescence used to define “complete remission”. […] Leukemic mice with tumor progression despite GCV administration (Non-responders, n=3) are depicted in the last two lanes on the right. […] Comparison of the percentage of 32Dp210-GFP+HSVTK+ cells in peripheral blood, spleen and bone marrow of responding mice (MRD). The percentage of GFP+ cells detected by flow cytometric analysis of blood (filled circle), spleen (open triangle), and bone marrow (filled diamonds) from each mouse achieving IVIS defined remission with MRD, are indicated on the Y axis. The mean for each group is designated by a horizontal line for each group as well as the S.E.M. Mice with MRD defined by semi-quantitative in vivo bioluminescence analyses had <5% leukemic cells in all tissues examined consistent with the clinical/pathological definition of leukemic remission.
as §1
To validate this model, mice were treated daily with GCV once 32Dp210 leukemia was evident by IVIS. […] (FIG. 17A). […] To assess responses after GCV treatment, the frequency of 32Dp210-GFP+/HSV-TK+ cells in spleen, blood, and bone marrow were quantified by flow cytometric analysis (FIG. 17C). […] Lower numbers of GFP+ leukemia cells were detected in spleen after 14 days of GCV.

A further series concerns 32Dp210 leukemia. The series is described as follows: Dose-finding studies of chemotherapeutic regimens in advanced 32Dp210 leukemia. The settings on record: data not shown. Here is the method: as §2

Turning to `Nc1nc(O)c2ncn(COC(CO)CO)c2n1` [GCV, ganciclovir], the relapse after remission entry in series [1] (14-day GCV with no further therapy) is on record as “eventually relapsed”. The “response by in vivo bioluminescence” value in series [1] (day 5 of GCV administration (day 15), 1×10^5 cells inoculated) is “most of the leukemic mice had major responses”. Moreover, in the series “Effect of GCV on CBC” (100 mg GCV/kg/day), the Lymphocytes was determined as 2.036 ± 0.279 k/μL, the Monocytes was 0.310 ± 0.0364 k/μL, the Neutrophils is recorded as 4.141 ± 0.580 k/μL and the “White Blood Cells” value was 6.638 ± 0.575 k/μL. Also, the “decline in WBC, neutrophils, hemoglobin, or monocytes” value in “Effect of GCV on CBC” is recorded as “no significant decline”. For the same molecule, the “number of peripheral lymphocytes” value in “Effect of GCV on CBC” (remained within the normal range) is listed as “only a small reduction”. In addition, the mice showing remission entry in series [2] (GCV begun on day 14 after tumor inoculation, read two weeks later (day 28)) was “Seven of 10”. In addition, in series [2] (GCV-treated mice in remission), the “blasts in bone marrow” value is recorded as less than 5%. Besides, the “GFP+ cells in BM” value in series [2] (GCV-treated mice in remission, n=7/7) is less than 0.5%. The “GFP+ leukemia cells in spleen” value in series [2] (after 14 days of GCV) is “Lower numbers”. In addition, the “leukemic cells in all tissues examined” value in series [2] (mice with MRD, blood, spleen, bone marrow) is on record as less than 5%.

Turning to `Nc1ccn([C@@H]2O[C@H](CO)[C@@H](O)[C@@H]2O)c(=O)n1` [cytosine arabinoside], the “outcome of dose-finding studies in leukemic mice” value in the series on 32Dp210 leukemia is “either ineffective, or resulted in both toxicity and lethality”.
